Assay results: patent US9376469B2, “Proteolytically resistant hydrogen bond surrogate helices” (New York University, priority 2011, dated 2016)
Square brackets hold non-standard residues; d marks the D form. Peptide text beside a SMILES is read from it. * marks the point of attachment. X1 = NC(=O)CC[C@@H]1NC(=O)CCC=CCN(CCC(=O)*)C(=O)[C@H](CCC(=O)O)NC1=O; β3hL = CC(C)C[C@H](N)CC(=O)O; β3hA = C[C@H](N)CC(=O)O

Legend:
serum proteases = experiment: Serum stability assay; format: in vitro ADME; conditions: 25% human serum in RPMI, 37° C., after 24 hours, LCMS
Method: Peptides and 50% human serum (Sigma, St Louis, Mo., USA; product number S7023) in RPMI were temperature-equilibrated to 37° C. for 15 minutes prior to the experiments. […] After 0, 2, 5, 10, and 24 hours, three samples of each peptide (50 μl) were taken, and were precipitated by the addition of 100 μl of 6% aqueous trichloroacetic acid. The samples were cooled to 4° C. for 20 minutes and centrifuged (14000 rpm for 5 minutes). The supernatants were immediately frozen on dry ice and 100 μl of each were analyzed on an Agilent LCMS using 0.1% formic acid in water (eluent A) and 0.1% formic acid in acetonitrile (eluent B). The level of intact peptide was determined by comparing the LC % area of the peptide peak at different time points to the % area of the O-hour peak.
Human serum contains a myriad of proteases and provides a gauge for the stability of compounds under physiological conditions.

trypsin = experiment: Trypsin digestion assay; format: in vitro ADME; conditions: 1 ng/μL trypsin, 4° C.
Method: A solution containing 500 μM of tryptophan, 1 ng/μL of trypsin, and 500 μM of peptide in PBS was incubated at 4° C. At the indicated time intervals, 100 μL of this solution was quenched with 100 μL of 2% aqueous TFA, and then injected into reversed-phase HPLC to analyze the change in the area of the peptide peak compared to the area of an internal control (tryptophan).
Trypsin was chosen as the model proteolytic enzyme because the p53 activation domain contains a lysine group near the C-terminus, providing a cleavage site for this enzyme. […] The rate of peptide digestion was measured using an LCMS assay with tryptophan as an internal control.

[1] = molecular target: T1, His6-tagged Mdm2 (25-117) (Homo sapiens, UniProt Q00987); experiment: Fluorescence polarization-based competitive binding assay with Flu-p53; conditions: for Kd: read-out: KD (binding constant for His6-Mdm2); for Binding to Mdm2, result in words: negative control peptides
T1 construct: made in house; host or cells: E. coli BL21 DE3 pLySS, pET-14B vector

HeLa cells = experiment: Cellular uptake assay, confocal microscopy of live cells; format: cell-based; conditions: 15 μM fluorescein-tagged peptide, 2 hours, 37° C.
Method: HeLa cells were cultured to sub-confluence in DMEM (Invitrogen) supplemented with 10% (v/v) fetal bovine serum (FBS) at 37° C. in a humidified incubator containing 5% CO2. Cells (˜1×10^4 cells/ml) in DMEM supplemented with 10% FBS were plated onto a 24-well culture plate containing microscope cover slides. After overnight incubation, cells were washed three times with 1 ml HBSS (Invitrogen) and supplemented with 15 μM fluorescein-tagged peptides in 1 mM PBS (pH 7.4) to a total volume of 500 μl. Peptide treated cells were incubated for another 2 hours at 37° C., washed five times with 500 μl HBSS, and imaged directly on a Leica TSC SP 2 laser scanning confocal microscope. Twenty serial 1 μm Z-section images through the middle of the cells were collected and analyzed.
It is likely that cellular uptake of HBS helices will have sequence dependence; however, it is noteworthy that peptides with an overall negative charge are internalized (Patgiri et al., Nat. Chem. Biol. 7:585 (2011), which is hereby incorporated by reference in its entirety), as positive charge is often associated with enhanced cellular uptake of peptides (Henchey et al., J. Am. Chem. Soc'y 132:941 (2010); Bernal et al., J. Am. Chem. Soc'y 129:2456 (2007); Wender et al., Proc. Nat'l Acad. Sci. USA 97:13003 (2000), each of which is hereby incorporated by reference in its entirety).

Compound | Kd [1] [µM] | Binding to Mdm2, result in words [1] | further results
CC(C)C[C@@H](CC(=O)N[C@@H](CC(C)C)C(=O)N[C@@H](CO)C(N)=O)NC(=O)[C@H](CCCCN)NC(=O)[C@H](Cc1c[nH]c2ccccc12)NC(=O)[C@H](CC(C)C)NC(=O)C[C@H](CC(=O)O)NC(=O)[C@H](CO)NC(=O)[C@H](Cc1ccccc1)NC(=O)CN1CC=CCCC(=O)N[C@@H](CCC(N)=O)C(=O)N[C@@H](CCC(=O)O)CC1=O [Peptide 1, XQeG*FSdLWKILS-NH2 (SEQ ID NO: 5)] | – | – | Stability in human serum, in words (serum proteases): remained unperturbed; metabolised at 24 h, 500 μM (trypsin; trypsin (isolated protease) in PBS, after 24 hours, 500 μM peptide, read-out: Peptide cleaved by trypsin): ~20%
CC(=O)N[C@@H](CCC(N)=O)C(=O)N[C@H]1CCC[C@@H]1C(=O)NCC(=O)N[C@@H](Cc1ccccc1)C(=O)N[C@@H](CO)C(=O)N[C@H]1CCC[C@@H]1C(=O)N[C@@H](CC(C)C)C(=O)N[C@@H](Cc1c[nH]c2ccccc12)C(=O)N[C@@H](CCCCN)C(=O)N[C@H]1CCC[C@@H]1C(=O)N[C@@H](CC(C)C)C(=O)N[C@@H](CO)C(N)=O [Peptide 4, Ac-Q(ACPC)GFS(ACPC)LWK(ACPC)LS-NH2 (SEQ ID NO: 8)] | 0.43 ± 0.086 | – | Affinity for Mdm2 as compared to peptide 1 ([1]; relative to peptide 1): roughly five-fold lower affinity
CC(C)C[C@@H](CC(=O)N[C@@H](C)C(=O)N[C@@H](CO)C(N)=O)NC(=O)[C@H](CCCCN)NC(=O)[C@H](Cc1c[nH]c2ccccc12)NC(=O)[C@H](CC(C)C)NC(=O)C[C@H](CC(=O)O)NC(=O)[C@H](CO)NC(=O)[C@H](C)NC(=O)CN1CC=CCCC(=O)N[C@@H](CCC(N)=O)C(=O)N[C@@H](CCC(=O)O)CC1=O [Peptide 5, XQeG*ASdLWKIAS-NH2 (SEQ ID NO: 9)] | > 1000 | does not bind to Mdm2 with measurable affinity | –
CC(C)C[C@@H](CC(=O)N[C@@H](Cc1c[nH]c2ccccc12)C(=O)N[C@@H](CCCCN)C(=O)N[C@@H](CC(C)C)C(=O)N[C@@H](C)CC(=O)N[C@@H](CO)C(N)=O)NC(=O)[C@H](CC(=O)O)NC(=O)[C@H](CO)NC(=O)[C@H](C)NC(=O)CCN1CC=CCCC(=O)N[C@@H](CCC(N)=O)C(=O)N[C@@H](CCC(=O)O)C1=O [Peptide 4-9, XQEg*ASDIWKLaS-NH2 (SEQ ID NO: 16)] (X1-ASD[β3hL]WKL[β3hA]S-NH2) | > 1000 | does not bind with any appreciable binding affinity | –
CC(=O)N[C@@H](CCC(N)=O)C(=O)N[C@@H](CCC(=O)O)CC(=O)NCC(=O)N[C@@H](Cc1ccccc1)C(=O)N[C@@H](CO)C(=O)N[C@@H](CC(=O)O)CC(=O)N[C@@H](CC(C)C)C(=O)N[C@@H](Cc1c[nH]c2ccccc12)C(=O)N[C@@H](CCCCN)C(=O)N[C@H](CC(=O)N[C@@H](CC(C)C)C(=O)N[C@@H](CO)C(N)=O)CC(C)C [Peptide 3, Ac-QeGFSdLWKILS-NH2 (SEQ ID NO: 7)] | – | – | Stability toward trypsin degradation, in words (trypsin; PBS): stable toward degradation
XQeG*FSdLWKILSC^Flu-NH2 (SEQ ID NO: 11) [Flu-1] | – | – | Cellular uptake (intracellular fluorescence) (HeLa cells): intense intracellular fluorescence
